Results on 33 compounds are retold here after patent US8916599B2, “1H-benz imidazole-5-carboxamides as anti-inflammatory agents” (Orexo AB, priority 2008, dated 2014).

The first assay has as its target T1, recombinant human mPGES-1 (Homo sapiens, UniProt O14684).
T1 construct: made in house; host or cells: Rosetta E. coli (microsomal/membrane fraction)
T1 sequence (O14684 1-152): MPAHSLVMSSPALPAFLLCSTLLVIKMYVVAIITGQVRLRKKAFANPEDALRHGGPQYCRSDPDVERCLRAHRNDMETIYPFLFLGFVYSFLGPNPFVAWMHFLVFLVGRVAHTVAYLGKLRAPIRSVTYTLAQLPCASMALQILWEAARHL
Description: mPGES-1 inhibition test (microsomes, PGH2 substrate, HTRF detection of PGE2). It is filed as biochemical. Particulars: inhibition of mPGES-1 at 1 μM (marked in cell). The essentials: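 Bacterial microsomes with GSH-containing phosphate buffer at pH 7.4 are exposed to test compounds for 25 minutes before a one-minute PGH2 conversion. The quenched, 750-fold diluted mixture is analysed by time-resolved FRET for PGE2.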
As to `Cc1ccc(Cl)c(Nc2nc3cc(C(=O)NC4CCCCC4)c(F)cc3[nH]2)c1F` [Example 649, 2-(6-Chloro-2-fluoro-3-methyl-phenylamino)-N-cyclohexyl-6-fluoro-1H-benzimidazole-5-carboxamide], the inhibition at 1 µM was found to be 96%.
Turning to `O=C(Nc1ccc(F)c(Br)c1)c1ccc2[nH]c(Nc3c(Cl)cccc3Cl)nc2c1` [Example 70, 2-(2,6-Dichloro-phenylamino)-1H-benzimidazole-5-carboxylic acid (3-bromo-4-fluoro-phenyl)-amide], the inhibition at 1 µM was found to be 100%.

The assay is the same for the next values; noted with them: inhibition of mPGES-1 at 10 μM.
In the case of `Cn1c(Nc2cc(C(N)=O)ccc2Cl)nc2cc(C(=O)Nc3ccc(Br)cc3)ccc21` [Example 537, N-(4-Bromophenyl)-2-(5-carbamoyl-2-chlorophenylamino)-1-methyl-1H-benzimidazole-5-carboxamide], the inhibition at 10 µM was found to be 99%.
Still for that read-out and setting: next, `CC(C)[C@H]1CC[C@H](NC(=O)c2cc3nc(Nc4c(Cl)cccc4Cl)[nH]c3cc2F)CC1` [Example 375]: 100%; `COc1cc2nc(Nc3c(Cl)cccc3Cl)[nH]c2cc1C(=O)Nc1ccc(Cl)c(F)c1` [Example 197]: 100%; `CC(NC(=O)c1ccc2c(c1)nc(Nc1c(Cl)cccc1Cl)n2C)c1ccccn1` (stereo not drawn) [Example 242]: 70%.
On to `O=C(NC1COc2ccccc2C1)c1cc2[nH]c(Nc3c(Cl)cccc3Cl)nc2cc1F` (stereo not drawn) [Example 152, 2-(2,6-Dichloro-phenylamino)-6-fluoro-1H-benzimidazole-5-carboxylic acid chroman-3-ylamide], for which the inhibition at 10 µM came out at 95%.
As for `CC1CCC(NC(=O)c2ccc3c(c2)nc(Nc2c(Cl)cccc2Cl)n3C)CC1` (stereo not drawn) [Example 239, 2-(2,6-Dichloro-phenylamino)-1-methyl-1H-benzimidazole-5-carboxylic acid (4-methyl-cyclohexyl)-amide], the inhibition at 10 µM amounted to 96%.
With `Cn1c(Nc2c(F)cccc2Cl)nc2cc(C(=O)NCCCC3CC3)c(F)cc21` [Example 390, 2-(2-Chloro-6-fluorophenylamino)-N-(3-cyclopropylpropyl)-6-fluoro-1-methyl-1H-benzimidazole-5-carboxamide], the inhibition at 10 µM is 100%.
As to `NCCn1c(Nc2c(Cl)cccc2Cl)nc2cc(C(=O)Nc3cc(Cl)ccn3)ccc21` [Example 211, 2-(2,6-Dichloro-phenylamino)-1-(2-amino-ethyl)-1H-benzimidazole-5-carboxylic acid (4-chloro-pyridin-2-yl)-amide (trifluoroacetate)], the inhibition at 10 µM was 100%.
On to `COc1ccnc(NC(=O)c2ccc3[nH]c(Nc4c(Cl)cccc4Cl)nc3c2)c1` [Example 188, 2-(2,6-Dichloro-phenylamino)-1H-benzimidazole-5-carboxylic acid (4-methoxy-pyridin-2-yl)-amide], for which the inhibition at 10 µM was 96%.
As to `Cn1c(Nc2c(F)cccc2Cl)nc2cc(C(=O)N[C@H]3CC[C@H](C(F)F)CC3)c(F)cc21` [Example 476, 2-(2-Chloro-6-fluorophenylamino)-N-((1r,4r)-4-(difluoromethyl)cyclohexyl)-6-fluoro-1-methyl-1H-benzimidazole-5-carboxamide], the inhibition at 10 µM came out at 100%.
With `Cn1c(Nc2c(Cl)cccc2Cl)nc2cc(C(=O)NCc3ncccc3Cl)c(F)cc21` [Example 452, N-((3-Chloropyridin-2-yl)methyl)-2-(2,6-dichlorophenylamino)-6-fluoro-1-methyl-1H-benzimidazole-5-carboxamide], the inhibition at 10 µM amounted to 93%.
Same read-out and setting: for `Cc1cc(C)nc(NC(=O)c2ccc3c(c2)nc(Nc2c(Cl)cccc2Cl)n3C)c1` [Example 201, 2-(2,6-Dichloro-phenylamino)-1-methyl-1H-benzimidazole-5-carboxylic acid (4,6-dimethyl-pyridin-2-yl)-amide] the value was 100%; for `Cc1cc(C(=O)Nc2ccc(Cl)c(F)c2)cc2nc(Nc3c(Cl)cccc3Cl)[nH]c12` [Example 52, 2-(2,6-Dichloro-phenylamino)-7-methyl-1H-benzimidazole-5-carboxylic acid (4-chloro-3-fluoro-phenyl)-amide], 100%.
In the case of `Cc1ccc(NC(=O)c2ccc3[nH]c(Nc4c(Cl)cccc4Cl)nc3c2)cc1Cl` [Example 286, 2-(2,6-Dichloro-phenylamino)-1H-benzimidazole-5-carboxylic acid (3-chloro-4-methyl-phenyl)-amide], the inhibition at 10 µM turned out to be 100%.
Turning to `CC(C)(C)[C@H]1CC[C@H](NC(=O)c2cc3nc(Nc4c(Cl)cccc4Cl)[nH]c3cc2F)CC1` [Example 356, N-((1r,4r)-4-tert.-Butylcyclohexyl)-2-(2,6-dichlorophenylamino)-6-fluoro-1H-benzimidazole-5-carboxamide], the inhibition at 10 µM turned out to be 100%.
With `Cc1nc(NC(=O)c2ccc3c(c2)nc(Nc2c(Cl)cccc2Cl)n3C)cc2c1CCCC2` [Example 139, 2-(2,6-Dichloro-phenylamino)-1-methyl-1H-benzimidazole-5-carboxylic acid (1-methyl-5,6,7,8-tetrahydro-isoquinolin-3-yl)-amide], the inhibition at 10 µM was found to be 98%.
Turning to `O=C(NC1Cc2ccccc2C1)c1cc2nc(Nc3c(Cl)cccc3Cl)[nH]c2cc1Cl` [Example 58, 2-(2,6-Dichloro-phenylamino)-6-chloro-1H-benzimidazol-5-carboxylic acid indan-2-yl-amide], the inhibition at 10 µM came to 90%.
As to `CN(C)CCCn1c(Nc2c(Cl)cccc2Cl)nc2cc(C(=O)Nc3cc(Cl)ccn3)ccc21` [Example 276, 2-(2,6-Dichloro-phenylamino)-1-(3-dimethylamino-propyl)-1H-benzimidazole-5-carboxylic acid (4-chloro-pyridin-2-yl)-amide], the inhibition at 10 µM is 100%.
On the same count and under the same terms, next, `Cn1c(Nc2c(Cl)cccc2Cl)nc2cc(C(=O)NC3CCC(C)(C)CC3)c(F)cc21` [Example 157, 2-(2,6-Dichloro-phenylamino)-6-fluoro-1-methyl-1H-benzimidazole-5-carboxylic acid (4,4-dimethyl-cyclohexyl)-amide]: 100%.
On the same count and under the same terms, next, `CNCCn1c(Nc2c(Cl)cccc2Cl)nc2cc(C(=O)Nc3cc(Cl)ccn3)ccc21` [Example 212, 2-(2,6-Dichloro-phenylamino)-1-(2-methylamino-ethyl)-1H-benzimidazole-5-carboxylic acid (4-chloro-pyridin-2-yl)-amide (trifluoroacetate)]: 100%; `CCC1CCC(NC(=O)c2cc3nc(Nc4c(F)cccc4Cl)n(C)c3cc2F)CC1` (stereo not drawn) [Example 362, N-(4-Ethylcyclohexyl)-2-(2-chloro-6-fluorophenylamino)-6-fluoro-1-methyl-1H-benzimidazole-5-carboxamide]: 100%.
Turning to `Cc1ccc(NC(=O)c2ccc3[nH]c(Nc4c(Cl)cccc4Cl)nc3c2)nc1` [Example 321, 2-(2,6-Dichloro-phenylamino)-1H-benzimidazole-5-carboxylic acid (5-methyl-pyridin-2-yl)-amide], the inhibition at 10 µM worked out at 93%.
Still for that read-out and setting: next, `O=C(Nc1ccc(Br)cc1)c1cc2nc(Nc3c(Cl)ccc(Cl)c3F)[nH]c2cc1OCC(F)(F)F` [Example 593, 2-(3,6-Dichloro-2-fluoro-phenylamino)-N-(4-bromophenyl)-6-(2,2,2-trifluorethoxy)-1H-benzimidazole-5-carboxamide]: 97%; `O=C(NC1CCCCCC1)c1ccc2[nH]c(Nc3c(Cl)cccc3Cl)nc2c1` [Example 214, 2-(2,6-Dichloro-phenylamino)-1H-benzimidazole-5-carboxylic acid cycloheptyl-amide]: 100%.
Still for that read-out and setting: for `O=C(Nc1ccc(Br)cn1)c1ccc2nc(Nc3c(F)cccc3Cl)[nH]c2c1` [Example 192, 2-(2-Chloro-6-fluoro-phenylamino)-3H-benzimidazole-5-carboxylic acid (5-bromo-pyridin-2-yl)-amide] the value was 100%; for `CCC1CCC(NC(=O)c2cc3nc(Nc4c(Cl)cccc4Cl)n(C)c3cc2F)C1` (stereo not drawn) [Example 412, 2-(2,6-Dichlorophenylamino)-N-(3-ethylcyclopentyl)-6-fluoro-1-methyl-1H-benzimidazole-5-carboxamide], 100%; for `O=C(Nc1ccccc1)c1ccc2[nH]c(Nc3ccccc3Cl)nc2c1` [Example 9, 2-(2-Chloro-phenylamino)-1H-benzimidazole-5-carboxylic acid-phenylamide], 93%.
On the same count and under the same terms, for `CCCCOc1cccc(NC(=O)c2ccc3c(c2)nc(Nc2c(Cl)cccc2Cl)n3C)n1` [Example 349, 2-(2,6-Dichloro-phenylamino)-1-methyl-1-H-benzimidazole-5-carboxylic acid (6-butoxy-pyridin-2-yl)-amide] the value was 100%; for `CC(C)Oc1cc2[nH]c(Nc3c(Cl)ccc(Cl)c3F)nc2cc1C(=O)NC1CCCCC1` [Example 611, 2-(3,6-Dichloro-2-fluoro-phenylamino)-6-isopropoxy-N-cyclohexyl-1H-benzimidazole-5-carboxamide], 90%; for `O=C(NC1CCC(F)(F)CC1)c1cc2[nH]c(Nc3c(Cl)cccc3Cl)nc2cc1F` [Example 149, 2-(2,6-Dichloro-phenylamino)-6-fluoro-3H-benzimidazole-5-carboxylic acid (4,4-difluoro-cyclohexyl)-amide], 100%.
In the case of `Cn1c(Nc2c(Cl)cccc2Cl)nc2cc(C(=O)Nc3cc(N4CCCCC4)ccn3)c(F)cc21` [Example 533, 2-(2,6-Dichlorophenylamino)-6-fluoro-1-methyl-N-(4-(piperidin-1-yl)-pyridin-2-yl)-1H-benzimidazole-5-carboxamide], the inhibition at 10 µM turned out to be 91%.

The term inhibition denotes how much of the control response was suppressed.
